From EP4617278A1, “NUCLEOTIDE ANALOG, AND COMPOSITION AND USE THEREOF” (priority 2022, dated 2024)

test system: RSV A2 virus; experiment: RSV CPE assay; settings: human respiratory syncytial virus, HEp-2, 120 h, read-out: RSV A2 (Hep-2 cell) EC50

Compared with `CC(C)(C)C(=O)O[C@H]1[C@@H](OC(=O)C(C)(C)C)[C@](C#N)(c2ccc3c(N)ncnn23)O[C@@H]1CO[P@@](=O)(N[C@H](C=O)CC(=O)OC1(C2CCCC2)CCCC1)Oc1ccccc1` [Compound 61b, (2R,3R,4R,5R)-2-(4-aminopyrrolo[2,1-f][1,2,4]triazin-7-yl)-2-cyano-5-((((S)-(((S)-1,4-bicyclopentyloxy-1,4-dioxobutan-2-yl)amino)(phenoxy)phosphoryl)oxy)methyl)tetrahydrofuran-3,4-diyl bis(2,2-dimethylpropionate)], `CC(C)C(=O)O[C@H]1[C@@H](OC(=O)C(C)C)[C@](C#N)(c2ccc3c(N)ncnn23)O[C@@H]1CO[P@@](=O)(N[C@@H](Cc1ccccc1)C(=O)OC1CCC1)Oc1ccccc1` [Compound 63b, (2R,3R,4R,5R)-2-(4-aminopyrrolo[2,1-f][1,2,4]triazin-7-yl)-2-cyano-5-((((S)-(((S)-1-cyclobutoxy-1-oxo-3-phenylpropan-2-yl)amino)(phenoxy)phosphoryl)oxy)methyl)tetrahydrofuran-3,4-diyl bis(2-methylpropionate)] is lower in EC50: 500 to 1000 nM for the first, under 100 nM for the second. The second is the more potent here.

First: CCC(CC)COC(=O)C[C@H](N[P@@](=O)(OC[C@H]1O[C@@](C#N)(c2ccc3c(N)ncnn23)[C@H](OC(=O)C(C)C)[C@@H]1OC(=O)C(C)C)Oc1ccccc1)C(=O)OCC(CC)CC [Compound 62a, (2R,3R,4R,5R)-2-(4-aminopyrrolo[2,1-f][1,2,4]triazin-7-yl)-2-cyano-5-((((R)-(((S)-1,4-bis(2-ethylbutoxy)-1,4-dioxobutan-2-yl)amino)(phenoxy)phosphoryl)oxy)methyl)tetrahydrofuran-3,4-diyl bis(2-methylpropionate)]
Second: CCC(CC)COC(=O)C[C@H](N[P@](=O)(OC[C@H]1O[C@@](C#N)(c2ccc3c(N)ncnn23)[C@H](OC(=O)C(C)C)[C@@H]1OC(=O)C(C)C)Oc1ccccc1)C(=O)OCC(CC)CC [Compound 62b, (2R,3R,4R,5R)-2-(4-aminopyrrolo[2,1-f][1,2,4]triazin-7-yl)-2-cyano-5-((((S)-(((S)-1,4-bis(2-ethylbutoxy)-1,4-dioxobutan-2-yl)amino)(phenoxy)phosphoryl)oxy)methyl)tetrahydrofuran-3,4-diyl bis(2-methylpropionate)]
The EC50 of the first is higher: 200 to 500 nM for the first, under 100 nM for the second.

Compared with `COC(C)(C)COC(=O)[C@H](Cc1ccccc1)N[P@@](=O)(OC[C@H]1O[C@@](C#N)(c2ccc3c(N)ncnn23)[C@H](OC(=O)C(C)C)[C@@H]1OC(=O)C(C)C)Oc1ccccc1` [Compound 64a, (2R,3R,4R,5R)-2-(4-aminopyrrolo[2,1-f][1,2,4]triazin-7-yl)-2-cyano-5-((((R)-(((S)-1-(2-methoxy-2-methylpropoxy)-1-oxo-3-phenylpropan-2-yl)amino)(phenoxy)phosphoryl)oxy)methyl)tetrahydrofuran-3,4-diyl bis(2-methylpropionate)], `COC(C)(C)COC(=O)[C@H](Cc1ccccc1)N[P@](=O)(OC[C@H]1O[C@@](C#N)(c2ccc3c(N)ncnn23)[C@H](OC(=O)C(C)C)[C@@H]1OC(=O)C(C)C)Oc1ccccc1` [Compound 64b, (2R,3R,4R,5R)-2-(4-aminopyrrolo[2,1-f][1,2,4]triazin-7-yl)-2-cyano-5-((((S)-(((S)-1-(2-methoxy-2-methylpropoxy)-1-oxo-3-phenylpropan-2-yl)amino)(phenoxy)phosphoryl)oxy)methyl)tetrahydrofuran-3,4-diyl bis(2-methylpropionate)] is lower in EC50: 100 to 200 nM for the first, under 100 nM for the second. The second is the more potent here.

same assay, conditions: read-out: RSV A2 (Hep-2 cell) EC50; HEp-2 cells, RSV A2 virus, 5 days, CCK8

`CC(C)C(=O)O[C@H]1[C@@H](OC(=O)C(C)C)[C@](C#N)(c2ccc3c(N)ncnn23)O[C@@H]1CO[P@](=O)(N[C@@H](Cc1ccccc1)C(=O)OC1CCC1)Oc1ccccc1` [Compound 63a] and “(2R,3R,4R,5R)-2-(4-aminopyrrolo[2,1-f][1,2,4]triazin-7-yl)-2-cyano-5-((((R)-(((S)-1,4-bicyclopentyloxy-1,4-dioxobutan-2-yl)amino)(phenoxy)phosphoryl)oxy)methyl)tetrahydrofuran-3,4-diyl diacetate [Compound 58a]” fall in the same range of EC50: 200 to 500 nM for the first, 200 to 500 nM for the second.

First: (2R,3R,4R,5R)-2-(4-aminopyrrolo[2,1-f][1,2,4]triazin-7-yl)-2-cyano-5-((((R)-(((S)-1,4-bicyclopentyloxy-1,4-dioxobutan-2-yl)amino)(phenoxy)phosphoryl)oxy)methyl)tetrahydrofuran-3,4-diyl dipropionate [Compound 59a]
Second: (2R,3R,4R,5R)-2-(4-aminopyrrolo[2,1-f][1,2,4]triazin-7-yl)-2-cyano-5-((((R)-(((S)-1,4-dicyclobutoxy-1,4-dioxobutan-2-yl)amino)(phenoxy)phosphoryl)oxy)methyl)tetrahydrofuran-3,4-diyl diacetate [Compound 55a]
The EC50 of the first is higher: 200 to 500 nM for the first, 100 to 200 nM for the second. The second is the more potent here.

“(2R,3R,4R,5R)-2-(4-aminopyrrolo[2,1-f][1,2,4]triazin-7-yl)-2-cyano-5-((((R)-(((S)-1,4-dicyclobutoxy-1,4-dioxobutan-2-yl)amino)(phenoxy)phosphoryl)oxy)methyl)tetrahydrofuran-3,4-diyl dipropionate [Compound 56a]” and “(2R,3R,4R,5R)-2-(4-aminopyrrolo[2,1-f][1,2,4]triazin-7-yl)-2-cyano-5-((((R)-(((S)-1-(2-ethylbutoxy)-1-oxopropan-2-yl)amino)(((isopropoxycarbonyl)oxy)methoxy)phosphoryl)oxy)methyl)tetrahydrofuran-3,4-diyl diacetate [Compound 5a]” fall in the same range of EC50: 200 to 500 nM for the first, 200 to 500 nM for the second.

First: (2R,3R,4R,5R)-2-(4-aminopyrrolo[2,1-f][1,2,4]triazin-7-yl)-2-cyano-5-((((R)-(((S)-1-isopropoxy-1-oxopropan-2-yl)amino)(((isopropoxycarbonyl)oxy)methoxy)phosphoryl)oxy)methyl)tetrahydrofuran-3,4-diyl diacetate [Compound 1a]
Second: (2R,3R,4R,5R)-2-(4-aminopyrrolo[2,1-f][1,2,4]triazin-7-yl)-2-cyano-5-((((S)-(((S)-1,4-bicyclopentyloxy-1,4-dioxobutan-2-yl)amino)(phenoxy)phosphoryl)oxy)methyl)tetrahydrofuran-3,4-diyl diacetate [Compound 58b]
The EC50 of the first is higher: 100 to 200 nM for the first, under 100 nM for the second.

First: (2R,3R,4R,5R)-2-(4-aminopyrrolo[2,1-f][1,2,4]triazin-7-yl)-2-cyano-5-((((S)-(((S)-1,4-bicyclopentyloxy-1,4-dioxobutan-2-yl)amino)(phenoxy)phosphoryl)oxy)methyl)tetrahydrofuran-3,4-diyl dipropionate [Compound 59b]
Second: (2R,3R,4R,5R)-2-(4-aminopyrrolo[2,1-f][1,2,4]triazin-7-yl)-2-cyano-5-((((S)-(((S)-1,4-dicyclobutoxy-1,4-dioxobutan-2-yl)amino)(phenoxy)phosphoryl)oxy)methyl)tetrahydrofuran-3,4-diyl diacetate [Compound 55b]
The EC50 of the first is lower: under 100 nM for the first, 100 to 200 nM for the second.

“(2R,3R,4R,5R)-2-(4-aminopyrrolo[2,1-f][1,2,4]triazin-7-yl)-2-cyano-5-((((S)-(((S)-1,4-dicyclobutoxy-1,4-dioxobutan-2-yl)amino)(phenoxy)phosphoryl)oxy)methyl)tetrahydrofuran-3,4-diyl dipropionate [Compound 56b]” and “(2R,3R,4R,5R)-2-(4-aminopyrrolo[2,1-f][1,2,4]triazin-7-yl)-2-cyano-5-((((S)-(((S)-1-(2-ethylbutoxy)-1-oxopropan-2-yl)amino)(((isopropoxycarbonyl)oxy)methoxy)phosphoryl)oxy)methyl)tetrahydrofuran-3,4-diyl diacetate [Compound 5b]” fall in the same range of EC50: 100 to 200 nM for the first, 100 to 200 nM for the second.

Compared with “(2R,3R,4R,5R)-2-(4-aminopyrrolo[2,1-f][1,2,4]triazin-7-yl)-2-cyano-5-((((S)-(((S)-1-isopropoxy-1-oxopropan-2-yl)amino)(((isopropoxycarbonyl)oxy)methoxy)phosphoryl)oxy)methyl)tetrahydrofuran-3,4-diyl diacetate [Compound 1b]”, “(2R,3R,4R,5R)-2-(4-aminopyrrolo[2,1-f][1,2,4]triazin-7-yl)-5-((((bis(((isopropoxycarbonyl)oxy)methoxy))phosphoryl)oxy)methyl)-2-cyanotetrahydrofuran-3,4-diyldiisopropyl bis(carbonate) [Compound 28]” is higher in EC50: 100 to 200 nM for the first, over 1000 nM for the second. The first is the more potent here.
